# In article PMC3566143, “Pantothenamides Are Potent, On-Target Inhibitors of Plasmodium falciparum Growth When Serum Pantetheinase Is Inactivated” (PLoS ONE, 2013):
# Experiments:
# P. falciparum PanK = assay: [14C]pantothenate phosphorylation assay with P. falciparum lysate; format: biochemical, Plasmodium falciparum; details: 100 µM pantothenamide, 0.2 µM [14C]pantothenate, 10 min
# Experimental: To assess the effect of the pantothenamides on pantothenate phosphorylation by P. falciparum PanK, the phosphorylation of [^14C]pantothenate by P. falciparum lysates was measured in the presence and absence of a single concentration of each pantothenamide. P. falciparum lysate was prepared from trophozoite stage parasites “isolated” from their host erythrocyte by treatment with 0.05% (w/v) saponin (essentially as described by Saliba et al.), and washed (five times) in HEPES-buffered saline (125 mM NaCl, 5 mM KCl, 20 mM D-glucose, 25 mM HEPES, 1 mM MgCl2, pH 7.1). Lysates were prepared as described by van Schalkwyk et al., except that 10 mM potassium phosphate, pH 7.4 (rather than 10 mM Tris, pH 7.4), was used to lyse the cells. Aliquots of lysate were stored at −20°C. The concentration of cell lysates was determined from cell counts made using an improved Neubauer hemocytometer.
# [^14C]Pantothenate phosphorylation was assayed using the Somogyi reagent essentially as described by Saliba et al., except that pantothenate phosphorylation was terminated by heat denaturation (rather than acid denaturation) of the protein in reaction aliquots. Briefly, P. falciparum lysate was added to solutions (at 37°C) of 50 mM Tris, 5 mM ATP, 5 mM MgCl2, at pH 7.4, containing [^14C]pantothenate (at a final concentration of 0.01 µCi/mL, or 0.2 µM), and a pantothenamide (at a final concentration of 100 µM) or an equivalent volume of solvent. Typically, lysate prepared from 5.4–6.5×10^7 parasites was present in each mL of reaction solution. Zero phosphorylation control reactions were prepared by adding a corresponding volume of 10 mM potassium phosphate instead of parasite lysate. Following a ten minute incubation at 37°C (a period during which pantothenate phosphorylation increased linearly with time in the absence of inhibitors) 200 µL aliquots of the [^14C]pantothenate phosphorylation reactions were transferred in duplicate to microcentrifuge tubes, and immediately incubated at 95°C for 10 min to terminate phosphorylation. Terminated reaction samples were centrifuged at 15 800×g for 10 min to pellet the denatured protein, before two aliquots of each supernatant (typically 80 µL) were transferred to new microcentrifuge tubes. To one aliquot, 500 µL Somogyi reagent was added, and to the other, 500 µL water was added. The samples were processed for determination of phosphorylated [^14C]pantothenate as described previously.
# Albumax II = assay: fluorescamine-based pantothenamide hydrolysis assay with Albumax II; format: in vitro ADME, bovine; details: 200 µM compound, Albumax II 0.6% (w/v), 37°C
# Experimental: Hydrolysis of compound 12 to pantothenate and isobutylamine was measured using a modification of a fluorescence-based assay described previously for the measurement of N-acetyl-1-D-myo-inosityl-2-amino-2-deoxy-α-D-glucopyranoside deacetylase activity, [31]. The assay utilizes fluorescamine (4-phenylspiro-[furan-2(3H),1-phthalan]-3,3′-dione; a non-fluorescent molecule that reacts with primary amines to form a fluorescent product) for the detection of primary amines. Briefly, recombinant human pantetheinase (at a final concentration of 100 ng/mL), Albumax II (at a final concentration 0.6%, w/v), or an equivalent volume of water, was added to solutions (at 37°C) of 100 mM potassium phosphate, pH 7.5, 0.5 mM dithiothreitol, 0.01% (w/v) bovine serum albumin, 0.1% (v/v) DMSO, with or without pantothenamide (at a final concentration of 200 µM). At the appropriate time points, aliquots (30 µL) of the reaction mixtures were removed in duplicate and mixed with 10 µL 20% (v/v) trichloroacetic acid to terminate the reaction. […] The plate was then incubated at 37°C for 10 min before fluorescence was measured using a FLUOstar OPTIMA multidetection microplate reader from BMG LABTECH with excitation and emission wavelengths of 390 and 485 nm, respectively. The fluorescence detected was converted to the corresponding isobutylamine concentration using an isobutylamine standard curve. […]
structure (smiles),measurement,setting,value
CC(C)CNC(=O)CCNC(=O)[C@H](O)C(C)(C)CO [Compound 12],Inhibition of pantothenate phosphorylation at 100 μM,P. falciparum PanK,95 ± 5%
same,time to completion of hydrolysis,Albumax II,≤ 24 h
same,fraction of pantothenamide hydrolyzed during 6 h incubation,Albumax II; 6 h,over one third
